In PMC5929447 (Oncotarget, 2018):

What was measured:
[1] = tested on: caspase-3 activity in RS4;11 tumor xenografts; test: Caspase-3 activity in RS4;11 tumor xenografts; type: in vivo; conditions: 16 h post dosing, SCID mice
Protocol: Body weights were recorded and tumors were measured with digital calipers twice to three times a week. Tumor volume was calculated using the formula: length × width^2/2. Percent changes in body weights was calculated as (BWcurrent - BWinitial)/(BWinitial) × 100. Data is presented as percent body weight change from the day of treatment initiation. When tumors reached approximately 200 mm^3 for efficacy studies or 300 mm^3 for pharmacodynamic studies, mice were randomized. […] Mice were treated via oral gavage at 10 ml/kg with the doses and schedules described in the figure. For pharmacodynamic studies, blood and tumors were removed 16 h post dosing and immediately snap-frozen. Total proteins were extracted from the tumors and caspase-3 activity was assessed in triplicate using CaspACE® Assay System (Promega). Platelet cell counts were determined 16 hours post dosing using Coulter AcT diff (Beckman).

[2] = tested on: control RS4;11 cells (shRNA CT); test: Viability of RS4;11 cells transduced with shRNA CT (control); type: cell-based; conditions: Homo sapiens, 72 h
Toledo xenograft = Toledo xenograft efficacy; type: in vivo, mice; conditions: day 21; for Mean TV change: mean ± s.e.m.
Protocol: Experiments were performed in SCID/beige female mice from Charles River Laboratories, Massachusetts, USA. Animals, approximately 7-8 weeks of age at the start of the treatment were allowed to acclimate in animal facility with access to food and water ad libitum for 3 days prior to manipulation. Animals were handled in accordance with IACUC regulations and guidelines for experiments performed in the USA and with European and French regulation for the protection of vertebrate animals for experiments performed in France. Animal well-being and behavior, including grooming and ambulation were monitored at least once a day. General health of mice was monitored and mortality recorded daily. Any moribund animals were sacrificed.
RS4;11 Acute Lymphoblastic Leukemia cell lines was obtained from ATCC. Toledo (Diffuse Large B-Cell Lymphoma) human cell lines were obtained internally through Bioresources and the Novartis-Cancer Cell Line Encyclopedia. Cells were free of Mycoplasma and murine viral contamination in the IMPACT VIII PCR assay panel (IDEXX RADIL, IDEXX laboratories INC, Westbrook, ME, USA). Cells used for subcutaneous implantation were cultured in RPMI plus 10% FBS at 37° C in a humidified atmosphere containing 5% carbon dioxide). […] Cells were resuspended in a 1:1 mixture of cold DPBS (Dulbecco's Phosphate-Buffered Saline) and Matrigel™ (Becton-Dickinson #354234) at a concentration of 3 × 10^7 cells/ml for Toledo cells, and of 1 × 10^7 cells/ml for RS4;11 cells.
For each experiment, female SCID/beige mice were implanted subcutaneously (right axillary region) with 3 × 10^6 Toledo or RS4;11 (1 × 10^6 cells for efficacy studies and 1 × 10^7 cells for pharmacodynamics studies) suspended in 1:1 mixture of cold DPBS and Matrigel™ in a total volume of 100 μl. Body weights were recorded and tumors were measured with digital calipers twice to three times a week. Tumor volume was calculated using the formula: length × width^2/2. Percent changes in body weights was calculated as (BWcurrent - BWinitial)/(BWinitial) × 100. Data is presented as percent body weight change from the day of treatment initiation.
When tumors reached approximately 200 mm^3 for efficacy studies or 300 mm^3 for pharmacodynamic studies, mice were randomized. […] Mice were treated via oral gavage at 10 ml/kg with the doses and schedules described in the figure.
For efficacy studies, percent treatment/control (T/C) values were calculated using the following formula: %T/C = 100 × ΔT/ΔC if ΔT > 0. Regression = 100 × ΔT/Tinitial if ΔT < 0 where: T = mean tumor burden of the drug-treated group on the final day of the study; ΔT = mean tumor burden of the drug-treated group on the final day of the study – mean tumor burden of the drug-treated group on initial day of dosing; Tinitial = mean tumor burden of the drug-treated group on initial day of dosing; C = mean tumor burden of the control group on the final day of the study; and ΔC = mean tumor burden of the control group on the final day of the study – mean tumor burden of the control group on initial day of dosing. If the tumor volume was less than 14 mm^3 for more than 3 consecutive measurements, animals were considered in complete regression (CR).

H146 cell line = test: CellTiter-Glo cell viability, H146; type: cell-based; conditions: Homo sapiens, NCI-H146; 72 h of treatment
Protocol: Cells were seeded into 96-well plates and treated at 8 points with 1:2 serial dilution of compounds. Cell viability was assessed and assayed for viability using CellTiter-Glo reagent (Promega) following the manufacturer's instructions. Plates were read using Tecan luminescence plate reader. Results were normalized to the viability of cells without compounds (control wells). The IC50 values were calculated using nonlinear regression algorithms in XCell software.

[3] = tested on: BAX-deficient RS4;11 cells; test: Viability of RS4;11 cells transduced with shRNA BAX; type: cell-based; conditions: 72 h
[4] = 200 mg/kg oral five times a week for 3 weeks
[5] = 300 mg/kg oral five times a week for 3 weeks

O=C(c1cc(-c2cc3c(cc2C(=O)N2Cc4ccccc4C[C@H]2CN2CCOCC2)OCO3)n2c1CCCC2)N(c1ccccc1)c1ccc(O)cc1 [S55746]
caspase-3 activity in tumor, times higher than in vehicle-treated animals ([1]; 25 mg/kg single oral gavage): about 11 times | caspase-3 activity in tumor, times higher than in vehicle-treated animals ([1]; 100 mg/kg single oral gavage): ~28 times | IC50 [2]: 57 nM | % T/C (Toledo xenograft; [4]): 13 % T/C | Mean TV change (Toledo xenograft; [4]): 239.03 ± 67.97 mm3 | % T/C (Toledo xenograft; [5]): 2 % T/C | Mean TV change (Toledo xenograft; [5]): 33.16 ± 37.38 mm3 | IC50 (H146 cell line): 1700 nM | reduction of sensitivity of BAX-deficient versus control RS4;11 [3]: ≈ 50 fold | IC50 ([3]; Homo sapiens, RS4-11, shRNA BAX): 2700 nM
